The text below walks through data of patent US20090170867A1, “TRPV1 ANTAGONISTS INCLUDING SULFONAMIDE SUBSTITUENT AND USES THEREOF” (Shionogi & Co., Ltd., priority 2007, published 2009).

Assay [1] addresses T1, human TRPV1 (Homo sapiens, UniProt Q8NER1).
T1 construct: using primers designed surrounding the complete hTRPV1 open reading frame; expressed in transfected cells; host or cells: CHO-K1 cells stably transfected with pcDNA3.1(-)-hVR1 plasmid
Briefly: Capsaicin-based assay, Protocol 2 (TRPV1/CHO cells, Fluo-4, FLIPR). It counts as cell-based. Conditions: capsaicin 100 nM final, mean ± SEM, number of trials in parentheses, read-out: TRPV1 IC50 Potency, Human Capsaicin CHO (hCAP-CHO). The text has this: The TRPV1/CHO cell line was generated as described below. […] The resulting PCR products were purified from agarose gels using Gel Band Purification Kit (GE Healthcare Bioscience) and were subcloned into pCR-Blunt vector (Invitrogen). The cloned cDNA was fully sequenced using a fluorescent dye-terminator reagent (BigDye Terminator ver3.1 Cycle Sequencing Kit, Applied Biosystems) and ABI Prism 3100 genetic analyzer (Applied Biosystems). The pCR-Blunt vector containing the hTRPV1 cDNA was subjected to restriction digestion with EcoRI. The restriction fragment was subcloned into expression vector pcDNA3.1 (-) (Invitrogen) and named pcDNA3.1 (-)-hVR1 plasmid. The sequence of the cDNA encoding TRPV1 is available at GenBank accession number AJ277028. […] The cells were transfected with the pcDNA3.1 (-)-hVR1 plasmid using FuGENE6 (Roche) according to the manufacturer's protocol. 24 hr after transfection, neomycin-resistant cells were selected using 1 mg/mL G418 (Nacalai Tesque). […] The cells expressing hTRPV1 were cultured in the growth medium supplemented with 1 mg/mL G418. […] Subsequently, the cells were loaded by incubation in 0.1 mL of wash buffer containing Fluo-4 at 3 μM final concentration. After 1 hour, the cells were washed twice with 0.2 mL wash buffer and resuspended in 0.1 mL wash buffer. The plates were then transferred to a Fluorescence Imaging Plate Reader (Molecular Devices). Fluorescence intensity was monitored for 15 seconds to establish a baseline. […] The final concentration of the compound was adjusted to range from 100 μM to 1.5625 μM. […] Data were collected over the entire time course and analyzed using Excel and the curve-fitting formula GraphPad Prism.

Assay [2] has as its target T1, human TRPV1. The experiment in a line: pH-based assay, Protocol 2 (TRPV1/CHO cells, Fura-2 AM, FDSS-3000, pH 5.0-5.1). It counts as cell-based. Conditions: H2SO4 agonist, mean ± SEM, number of trials in parentheses, read-out: TRPV1 IC50 Potency, Human pH CHO (hpH-CHO). From the text: For Protocol 2, a Chinese Hamster Ovary cell line (CHO) that has been engineered to constitutively express human recombinant TRPV1 was used (TRPV1/CHO cells). The TRPV1/CHO cell line was generated as described below.
The resulting PCR products were purified from agarose gels using Gel Band Purification Kit (GE Healthcare Bioscience) and were subcloned into pCR-Blunt vector (Invitrogen). The cloned cDNA was fully sequenced using a fluorescent dye-terminator reagent (BigDye Terminator ver3.1 Cycle Sequencing Kit, Applied Biosystems) and ABI Prism 3100 genetic analyzer (Applied Biosystems). The pCR-Blunt vector containing the hTRPV1 cDNA was subjected to restriction digestion with EcoRI. The restriction fragment was subcloned into expression vector pcDNA3.1 (−) (Invitrogen) and named pcDNA3.1 (−)-hVR1 plasmid. The sequence of the cDNA encoding TRPV1 is available at GenBank accession number AJ277028.
CHO-K1 cells were maintained in growth medium consisting of α-MEM, 10% FBS (Hyclone), and 100 IU/mL of penicillin-100 μg/mL of streptomycin mixed solution (Nacalai Tesque, Japan) at 37° C. in an environment of humidified 95% air and 5% CO2. The cells were transfected with the pcDNA3.1 (−)-hVR1 plasmid using FuGENE6 (Roche) according to the manufacturer's protocol. 24 hr after transfection, neomycin-resistant cells were selected using 1 mg/mL G418 (Nacalai Tesque). After 2 weeks, individual colonies were picked, expanded, and screened for the expression of hTRPV1 in the capsaicin-induced Ca^2+ influx assay (see below) with a FLIPR (Molecular Devices). A clone with the largest Ca^2+ response to capsaicin was selected and re-cloned by the same procedure. The cells expressing hTRPV1 were cultured in the growth medium supplemented with 1 mg/mL G418.
TRPV1/CHO cells were seeded in the 96-well clear-bottom black-wall plate (Nunc) at densities of 1-2×10^4 cells/well and grown in 100 μL of culture medium (alpha-MEM supplemented with 10% FBS, 20 mM HEPES, 1 mg/mL geneticin and 1% antibiotic-antimycotic mixed stock solution) for 1-2 days before the experiment.
Different agonist solutions with sulfuric acid concentrations of from 15 mM to 18 mM (see FIG. 1) were prepared by diluting 1M sulfuric acid with measuring buffer. The different sulfuric acid concentrations in the agonist solutions were selected such that a 1:4 dilution would result in a final sulfuric acid concentration of between 3.0 mM to 3.6 mM, respectively, as indicated in FIG. 1.
The cells were stimulated using 3.0 mM (well number B1-6), 3.1 mM (C1-6), 3.2 mM (D1-6), 3.3 mM (E1-6), 3.4 mM (F1-6), 3.5 mM (G1-6), or 3.6 mM (H1-6) H2SO4 or pH 7.2 measuring buffer without H2SO4 (A1-6) (FIG. 2).
(1) Culture medium was removed using an 8-channel-pipette (Rainin, USA) from the 96-well plate and the wells were refilled with 100 μL of loading buffer (20 mM HEPES, 115 mM NaCl, 5.4 mM KCl, 0.8 mM MgCl2, 1.8 mM CaCl2, 13.8 mM D-glucose, 2.5 mM probenecid, pH 7.4) containing 5 μM Fura-2 AM (Dojin, Japan).
(2) The 96-well plate was incubated at 37° C. for 45 min.
(3) The loading buffer was removed from each well. The cells were subsequently washed twice with 150 μL of measuring buffer (20 mM HEPES, 115 mM NaCl, 5.4 mM KCl, 0.8 mM MgCl2, 5.0 mM CaCl2, 13.8 mM D-glucose, 0.1% BSA, pH 7.4) (no probenecid). The wells were then refilled with 80 μL of measuring buffer.
(4) After an incubation at 4° C. for 15 min, the 96-well plate was transferred to FDSS-3000 (Hamamatsu Photonics, Japan).
(5) The Fura-2 fluorescent intensity was monitored at a wavelength of 340 nm and at 380 nm, respectively, at a rate of 0.5 Hz for a total of 240 seconds.

SMILES strings stand for the structures.

T1 sequence (Q8NER1 whole entry): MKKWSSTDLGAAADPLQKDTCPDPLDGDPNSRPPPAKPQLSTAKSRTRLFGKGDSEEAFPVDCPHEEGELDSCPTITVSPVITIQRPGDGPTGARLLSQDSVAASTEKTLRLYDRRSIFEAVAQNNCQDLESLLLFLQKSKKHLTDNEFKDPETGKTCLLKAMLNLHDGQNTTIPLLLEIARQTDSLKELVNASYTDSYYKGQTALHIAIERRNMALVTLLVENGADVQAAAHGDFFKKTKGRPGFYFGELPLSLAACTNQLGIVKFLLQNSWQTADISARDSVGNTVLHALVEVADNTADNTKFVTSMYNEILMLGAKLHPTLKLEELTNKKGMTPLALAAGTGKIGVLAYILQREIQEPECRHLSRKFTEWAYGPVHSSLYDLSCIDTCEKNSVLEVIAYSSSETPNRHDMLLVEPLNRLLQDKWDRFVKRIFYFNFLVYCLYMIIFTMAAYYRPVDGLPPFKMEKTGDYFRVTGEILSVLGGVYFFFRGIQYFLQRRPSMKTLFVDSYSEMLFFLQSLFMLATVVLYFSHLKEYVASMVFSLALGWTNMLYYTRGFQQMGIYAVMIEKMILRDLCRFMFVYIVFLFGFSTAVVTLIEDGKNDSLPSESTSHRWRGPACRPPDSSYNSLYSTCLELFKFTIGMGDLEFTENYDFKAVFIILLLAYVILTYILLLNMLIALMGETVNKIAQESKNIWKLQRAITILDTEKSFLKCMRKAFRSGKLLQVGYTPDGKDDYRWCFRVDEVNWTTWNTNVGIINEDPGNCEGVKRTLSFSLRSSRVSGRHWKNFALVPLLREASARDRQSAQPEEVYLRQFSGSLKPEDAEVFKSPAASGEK

Take `O=C(Nc1ccc(C(F)(F)F)c(Cl)c1)N1CC=C(c2ncc([C@H](O)CO)cc2Cl)CC1` [Compound D2, (S)-3-Chloro-5-(1,2-dihydroxy-ethyl)-3′,6′-dihydro-2′H-[2,4′]bipyridinyl-1′-carboxylic acid (3-chloro-4-trifluoromethyl-phenyl)amide]: the IC50 on human TRPV1 [1] was 85.3 ± 20.7 nM; at human TRPV1 [2], 10.8 ± 0.9 nM.

Take `O=C(Nc1ccc(C(F)(F)F)c(F)c1)N1CC=C(c2ncc([C@H](O)CO)cc2F)CC1` [Compound J1]: the concentration for half-maximal inhibition (IC50) at human TRPV1 [1] was 34.5 ± 17.5 nM; at human TRPV1 [2], 18 nM.

Take `CCOc1cc(NC(=O)N2CC=C(c3ncc(CO)cc3Cl)CC2)ccc1C(F)(F)F` [Compound N2]: the IC50 was found to be 161 ± 16.6 nM at human TRPV1 [1] and 27.3 ± 2.6 nM on human TRPV1 [2].

With `O=C(Nc1ccc(Br)c(C(F)(F)F)c1)N1CC=C(c2ncc([C@H](O)CO)cc2Cl)CC1` [Compound P2], the IC50 on human TRPV1 [1] is 173 ± 40.3 nM; at human TRPV1 [2], 44.4 nM.

Turning to `O=C(Nc1ccc(OC(F)(F)F)cc1)N1CC=C(c2ncc([C@H](O)CO)cc2F)CC1` [Compound V1], the figures for the IC50 at human TRPV1 [1] and at human TRPV1 [2] were 66.3 ± 5.7 nM and 22.4 ± 1.1 nM, respectively.

Turning to `O=C(Nc1ccc(OCC2CC2)c(C(F)(F)F)c1)N1CC=C(c2ncc(CO)cc2Cl)CC1` [Compound Y2], the IC50 worked out at 351 ± 69.8 nM on human TRPV1 [1] and 59.9 ± 11.8 nM on human TRPV1 [2].

On to `O=C(Nc1ccc(OC(F)(F)F)c(Cl)c1)N1CCC(F)(c2ncc([C@H](O)CO)cc2Cl)CC1` [Compound M1], for which the half-maximal inhibitory concentration (IC50) at human TRPV1 [1] is 37.5 ± 9 nM; at human TRPV1 [2] it was 5.7 ± 0.3 nM.

On to `O=C(Nc1nc2ccc(Cl)cc2s1)N1CCC(F)(c2ncc([C@H](O)CO)cc2F)CC1` [Compound W3], for which the IC50 on human TRPV1 [1] worked out at 35.6 ± 8.9 nM; at human TRPV1 [2] it was 22.4 nM.

Consider `COCc1cnc(C2=CCN(C(=O)Nc3ccc(C(F)(F)F)cc3)CC2)c(Cl)c1` [Compound F3], for which the IC50 at human TRPV1 [1] was 916 ± 306 nM; at human TRPV1 [2], 585 nM.

Consider `O=C(Nc1ccc(Cl)c(C(F)(F)F)c1)N1CCN(c2ncc([C@H](O)CO)cc2Cl)CC1` [Compound W6, (S)—N-(4-chloro-3-(trifluoromethyl)phenyl)-4-(3-chloro-5-(1,2-dihydroxyethyl)pyridin-2-yl)piperazine-1-carboxamide], for which the values for the IC50 at human TRPV1 [1] and on human TRPV1 [2] were 32.9 ± 11.8 nM and 14.9 ± 2.2 nM, respectively.

On to `CCCOc1cc(NC(=O)N2CC=C(c3ncc(CO)cc3Cl)CC2)ccc1C(F)(F)F` [Compound O2], for which the IC50 at human TRPV1 [1] turned out to be 162 ± 29.5 nM; at human TRPV1 [2], 18.8 ± 4 nM.

On to `CC(C)(O)c1cnc(C2=CCN(C(=O)Nc3ccc(C(F)(F)F)cc3)CC2)c(Cl)c1` [Compound X2], for which the IC50 was 248 ± 25.1 nM on human TRPV1 [1] and 81.1 ± 10.5 nM on human TRPV1 [2].

Consider `O=C(Nc1nc2ccc(Cl)cc2s1)N1CCC(F)(c2ncc([C@H](O)CO)cc2Cl)CC1` [Compound Z4], for which the IC50 at human TRPV1 [1] was 62.8 ± 11.4 nM; on human TRPV1 [2], 16.5 ± 3.3 nM.

As for `CC(C)Oc1ccc(NC(=O)N2CC=C(c3ncc(CO)cc3Cl)CC2)cc1C(F)(F)F` [Compound I2], the results for the IC50 at human TRPV1 [1] and on human TRPV1 [2] were 122 ± 7.1 nM and 18 ± 1 nM, respectively.

On to `O=C(Nc1ccc(C(F)(F)F)cn1)N1CC=C(c2ncccc2Cl)CC1` [Compound 201], for which the IC50 came to 131 nM on human TRPV1 [1] and 185 nM on human TRPV1 [2].

Take `CN1CCCc2ccc(NC(=O)N3CCN(c4ncc([C@H](O)CO)cc4Cl)CC3)cc21` [Compound H5]: the IC50 came out at 520 ± 88.6 nM on human TRPV1 [1] and 516 ± 99.2 nM on human TRPV1 [2].

In the case of `O=C(Nc1ccc(C(F)(F)F)cn1)N1CC=C(c2ncc([C@@H](O)CO)cc2Cl)CC1` [Compound N3, (R)-4-(3-chloro-5-(1,2-dihydroxyethyl)pyridin-2-yl)-N-(5-(trifluoromethyl)pyridin-2-yl)-5,6-dihydropyridine-1(2H)-carboxamide], the results for the IC50 at human TRPV1 [1] and at human TRPV1 [2] were 161 ± 41.7 nM and 223 ± 14 nM, respectively.

Regarding `O=C(Nc1ccc(C(F)(F)F)cc1)N1CCC(F)(c2ncccc2Cl)CC1` [Compound 203], the IC50 was 90.2 nM at human TRPV1 [1] and 51.2 nM at human TRPV1 [2].

Consider `O=C(Nc1nc2ccc(Cl)cc2s1)N1CC=C(c2ncc([C@H](O)CO)cc2Cl)CC1` [Compound W1], for which the concentration for half-maximal inhibition (IC50) at human TRPV1 [1] worked out at 68.9 ± 18.4 nM; at human TRPV1 [2] it was 9.3 ± 1.9 nM.
